Among the data in patent publication US20020052503A1, “Substituted benzolactam compounds as substance p antagonists” (priority 1995, published 2002) are IC50, inhibition and melting point values, retold here.

pIC50: −log10 of the molar value.

For one series, the target named is T1, substance P receptor sites in human IM-9 cells (Homo sapiens, UniProt P25103).
T1 construct: endogenous in cells; host or cells: human IM-9 cells (whole cells)
T1 sequence (P25103 whole entry): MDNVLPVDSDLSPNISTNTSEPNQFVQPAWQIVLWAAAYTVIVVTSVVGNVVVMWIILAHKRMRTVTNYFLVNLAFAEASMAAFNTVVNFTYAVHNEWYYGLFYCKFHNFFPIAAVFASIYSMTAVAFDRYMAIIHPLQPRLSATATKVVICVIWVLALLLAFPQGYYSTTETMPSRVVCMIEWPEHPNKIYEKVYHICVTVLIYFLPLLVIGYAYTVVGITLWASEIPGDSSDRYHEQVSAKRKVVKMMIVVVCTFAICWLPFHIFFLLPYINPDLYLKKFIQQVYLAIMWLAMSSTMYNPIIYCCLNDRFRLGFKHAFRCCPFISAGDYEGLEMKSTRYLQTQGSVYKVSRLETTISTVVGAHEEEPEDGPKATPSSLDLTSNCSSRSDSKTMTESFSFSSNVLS
In words: IM-9 binding assay (inhibition of [^3H]SP binding). Particulars: [^3H]SP binding to human IM-9 cells. The protocol:
The activity of the compounds of the present invention, as substance P antagonists, is determined by their ability to inhibit the binding of substance P at its 30 receptor sites in CHO-cells which reveal NK1 receptor or IM-9 cells employing radioactive ligands. The substance P antagonist activity of the herein described compounds is evaluated by using the standard assay procedure described by D. G. Payan et al., as reported in the The Journal of Immunology . 133, 3260 (1984). This method essentially involves determining the concentration of the individual compound required to reduce by 50% the amount of radiolabelled substance P ligands at their receptor sites in said isolated cow tissues or IM-9 cells, thereby affording characteristic IC50 values for each compound tested. More specifically, inhibition of [^3H]SP binding to human IM-9 cells by compounds are determined in assay buffer (50 mM Tris-HCl (pH 7.4), 1 mM MnCl2, 0.02% bovine serum albumin, bacitracin (40 μg/ml), leupeptin (4 μg/ml), chymostatin (2 μg/ml) and phosphoramidon (30 μg/ml)). […] Nonspecific binding is defined as the radioactivity remaining in the presence of 1 μM SP. The filters are placed into tubes and counted using liquid scintillation counter.
`COc1cc2c(cc1CN[C@H]1CCCN[C@H]1c1ccccc1)N(C)C(=O)CC2.Cl.Cl` [Compound 21, (2S,3S)-3-(6-Methoxy-1-methyl-2-oxo-1,2,3,4-tetrahydroquinolin-7-yl)methylamino-2-phenylpiperidine dihydrochloride] showed a pIC50 of more than 10.00.

The next series has as its system [Sar^9, Met(O2)^11]substance P-induced hind paw tapping in gerbils. Put plainly: [Sar^9, Met(O2)^11]substance P-induced tapping test. To be noted: Meriones unguiculatus, % inhibition at 0.3 mg/kg scoring. The series is classed as in vivo, gerbil. The protocol: The activity of the compounds of this invention against CNS disorder is determined by [Sar^9, Met(O2)^11]substance P-induced tapping test in gerbils. More specifically, gerbils are lightly anesthetized with ether and the skull surface is exposed. [Sar^9, Met(O2)^11]substance P or vehicle (5 μl) are administered directly into the lateral ventricles via a 25 gauge needle inserted 3.5 mm below lambda. Following injection, gerbils are placed in 2 l beaker individually and monitored for repetitive hind paw tapping. Some compounds prepared in the following Examples were tested in accordance with these testing methods.
One may read the inhibition as the percentage by which the read-out fell short of the control. Low readings indicate a weak effect, high ones a strong effect. `COc1cc2c(cc1CN[C@H]1CCCN[C@H]1c1ccccc1)N(C)C(=O)CC2.Cl.Cl` [Compound 21, (2S,3S)-3-(6-Methoxy-1-methyl-2-oxo-1,2,3,4-tetrahydroquinolin-7-yl)methylamino-2-phenylpiperidine dihydrochloride]: at 0.3 mg/kg the inhibition was 52%.

Test system in the next series: not given
Test: not given
Settings: not given
As a reminder, the melting point is the temperature, or range, at which the solid turns liquid. `COc1cc2c(cc1CN[C@H]1C3CCN(CC3)[C@H]1C(c1ccccc1)c1ccccc1)N(C)C(=O)CC2` displayed a melting point of 136 to 139 °C.

`COc1cc2ccc(=O)n(C)c2cc1CN[C@H]1C2CCN(CC2)[C@H]1C(c1ccccc1)c1ccccc1` came in with a melting point of 125 to 128 °C.

`COc1cc2ccc(=O)n(C)c2cc1CN[C@H]1CCCN[C@H]1c1ccccc1.Cl.Cl` registered a melting point of 260 to 263 °C.

`COc1cc2c(cc1CN[C@H]1CCCN[C@H]1c1ccccc1)N(C(C)C)C(=O)CC2.Cl.Cl` had a melting point of 257 to 260 °C.

In the case of `CN1C(=O)CCc2cc(OC(F)F)c(CN[C@H]3CCCN[C@H]3c3ccccc3)cc21.Cl.Cl`, the melting point was 238 to 240 °C.

Regarding `CN1C(=O)CCc2cc(OCC(F)(F)F)c(CN[C@H]3CCCN[C@H]3c3ccccc3)cc21.Cl.Cl`, the melting point lay in the range of 239 to 240 °C.

For the compound `COc1cc2c(cc1CN[C@H]1CCCN[C@H]1c1ccccc1)N(C)C(=S)CC2.Cl.Cl`, the melting point was in the range of 245 to 246 °C.

`COc1cc2c(cc1CN[C@H]1CCCN[C@H]1c1ccccc1)N(C)C(=O)CCC2.Cl.Cl` came in with a melting point of 236 to 238 °C.

With `COc1cc2c(cc1CN[C@H]1CCCN[C@H]1c1ccccc1)CCC(=O)N2C.Cl.Cl`, the melting point was 243 to 244 °C.

In turn, `COc1cc2c(cc1CN[C@H]1CCCN[C@H]1c1ccccc1)C(C(F)(F)F)CC(=O)N2C.Cl.Cl` (stereo partly drawn) registered a melting point of 225 to 256 °C.

`COc1cc2c(cc1CN[C@H]1CCCN[C@H]1c1ccccc1)N(C)C(=O)OC2.Cl.Cl` showed a melting point of 235 to 237 °C.

The compound `COc1cc2c(cc1CN[C@H]1CCCN[C@H]1c1ccccc1)N(C)C(=O)SC2.Cl.Cl` displayed a melting point of 252 to 254 °C.

The compound `COc1cc2c(cc1CN[C@H]1CCCN[C@H]1c1ccccc1)C(C)(C)C(=S)N2C.Cl.Cl` returned a melting point of 234 to 236 °C.

`COc1cc2c(cc1CN[C@H]1CCCN[C@H]1c1ccccc1)CCC(=S)N2C.Cl.Cl`: the melting point was in the range of 219 to 221 °C.

The compound `COc1cc2c(cc1CN[C@H]1CCCN[C@H]1c1ccccc1)N(C)C(=O)CC2.Cl.Cl` [Compound 21, (2S,3S)-3-(6-Methoxy-1-methyl-2-oxo-1,2,3,4-tetrahydroquinolin-7-yl)methylamino-2-phenylpiperidine dihydrochloride] had a melting point of 265 to 268 °C.

The target of the next series is T2, Ca^2+ channel in rat heart membrane preparation (Rattus norvegicus, UniProt P22002).
T2 construct: from tissue; host or cells: rat heart membrane preparation
T2 sequence (P22002 whole entry, other chains not shown): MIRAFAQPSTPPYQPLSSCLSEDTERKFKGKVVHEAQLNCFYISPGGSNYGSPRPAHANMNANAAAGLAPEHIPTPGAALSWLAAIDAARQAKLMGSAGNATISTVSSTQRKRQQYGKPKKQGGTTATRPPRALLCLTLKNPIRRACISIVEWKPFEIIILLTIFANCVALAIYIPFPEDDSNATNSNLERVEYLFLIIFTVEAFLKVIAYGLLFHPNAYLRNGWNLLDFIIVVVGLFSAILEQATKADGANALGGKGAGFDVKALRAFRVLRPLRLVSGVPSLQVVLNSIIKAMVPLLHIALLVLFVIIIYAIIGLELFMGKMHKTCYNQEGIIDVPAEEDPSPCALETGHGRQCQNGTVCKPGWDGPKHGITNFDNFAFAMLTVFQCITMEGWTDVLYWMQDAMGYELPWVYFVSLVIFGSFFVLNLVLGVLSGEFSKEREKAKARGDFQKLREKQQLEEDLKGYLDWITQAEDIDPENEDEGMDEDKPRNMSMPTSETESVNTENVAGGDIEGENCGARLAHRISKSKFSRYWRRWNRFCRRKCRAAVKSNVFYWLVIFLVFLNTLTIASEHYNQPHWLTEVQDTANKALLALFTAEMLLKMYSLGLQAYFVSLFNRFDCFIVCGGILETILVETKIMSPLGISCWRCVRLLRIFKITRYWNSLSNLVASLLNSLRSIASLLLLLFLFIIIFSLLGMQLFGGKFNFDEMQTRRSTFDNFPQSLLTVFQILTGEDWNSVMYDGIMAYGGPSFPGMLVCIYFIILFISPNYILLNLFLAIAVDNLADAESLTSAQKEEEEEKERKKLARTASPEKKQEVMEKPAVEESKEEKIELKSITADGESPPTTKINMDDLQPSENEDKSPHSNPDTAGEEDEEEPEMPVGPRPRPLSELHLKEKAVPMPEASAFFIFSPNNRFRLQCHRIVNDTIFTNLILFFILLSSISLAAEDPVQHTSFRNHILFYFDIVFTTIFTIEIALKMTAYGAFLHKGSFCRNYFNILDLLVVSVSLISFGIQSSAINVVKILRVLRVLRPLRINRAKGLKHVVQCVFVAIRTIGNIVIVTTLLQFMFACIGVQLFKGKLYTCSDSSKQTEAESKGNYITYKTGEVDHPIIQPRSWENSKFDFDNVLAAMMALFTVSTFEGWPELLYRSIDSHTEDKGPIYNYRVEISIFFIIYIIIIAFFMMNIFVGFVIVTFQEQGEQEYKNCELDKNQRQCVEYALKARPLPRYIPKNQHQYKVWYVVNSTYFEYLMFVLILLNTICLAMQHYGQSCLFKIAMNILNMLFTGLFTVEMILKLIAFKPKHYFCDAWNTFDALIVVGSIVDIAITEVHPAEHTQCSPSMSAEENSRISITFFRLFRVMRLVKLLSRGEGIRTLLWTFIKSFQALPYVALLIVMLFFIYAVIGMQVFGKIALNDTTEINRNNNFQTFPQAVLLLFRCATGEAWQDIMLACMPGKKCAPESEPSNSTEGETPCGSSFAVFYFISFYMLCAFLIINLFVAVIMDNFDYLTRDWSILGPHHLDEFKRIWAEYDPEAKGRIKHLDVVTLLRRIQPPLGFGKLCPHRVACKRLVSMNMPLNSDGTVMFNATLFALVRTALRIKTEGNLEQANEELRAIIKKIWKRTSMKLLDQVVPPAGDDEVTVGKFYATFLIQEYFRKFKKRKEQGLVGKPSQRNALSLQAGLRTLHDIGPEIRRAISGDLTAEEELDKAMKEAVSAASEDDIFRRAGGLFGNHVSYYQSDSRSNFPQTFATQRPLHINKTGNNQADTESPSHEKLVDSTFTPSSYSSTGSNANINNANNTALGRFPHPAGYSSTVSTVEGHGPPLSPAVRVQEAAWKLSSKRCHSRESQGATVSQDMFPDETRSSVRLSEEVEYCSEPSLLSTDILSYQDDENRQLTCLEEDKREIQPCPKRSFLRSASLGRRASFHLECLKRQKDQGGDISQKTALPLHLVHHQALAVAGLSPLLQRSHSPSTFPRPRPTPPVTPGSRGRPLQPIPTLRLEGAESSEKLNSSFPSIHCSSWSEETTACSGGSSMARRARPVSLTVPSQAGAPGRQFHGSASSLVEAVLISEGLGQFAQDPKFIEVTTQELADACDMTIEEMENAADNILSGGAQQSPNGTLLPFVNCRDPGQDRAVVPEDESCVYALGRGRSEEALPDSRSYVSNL
T2 sequence (P54290 25-944 partner limits assumed, other chains not shown): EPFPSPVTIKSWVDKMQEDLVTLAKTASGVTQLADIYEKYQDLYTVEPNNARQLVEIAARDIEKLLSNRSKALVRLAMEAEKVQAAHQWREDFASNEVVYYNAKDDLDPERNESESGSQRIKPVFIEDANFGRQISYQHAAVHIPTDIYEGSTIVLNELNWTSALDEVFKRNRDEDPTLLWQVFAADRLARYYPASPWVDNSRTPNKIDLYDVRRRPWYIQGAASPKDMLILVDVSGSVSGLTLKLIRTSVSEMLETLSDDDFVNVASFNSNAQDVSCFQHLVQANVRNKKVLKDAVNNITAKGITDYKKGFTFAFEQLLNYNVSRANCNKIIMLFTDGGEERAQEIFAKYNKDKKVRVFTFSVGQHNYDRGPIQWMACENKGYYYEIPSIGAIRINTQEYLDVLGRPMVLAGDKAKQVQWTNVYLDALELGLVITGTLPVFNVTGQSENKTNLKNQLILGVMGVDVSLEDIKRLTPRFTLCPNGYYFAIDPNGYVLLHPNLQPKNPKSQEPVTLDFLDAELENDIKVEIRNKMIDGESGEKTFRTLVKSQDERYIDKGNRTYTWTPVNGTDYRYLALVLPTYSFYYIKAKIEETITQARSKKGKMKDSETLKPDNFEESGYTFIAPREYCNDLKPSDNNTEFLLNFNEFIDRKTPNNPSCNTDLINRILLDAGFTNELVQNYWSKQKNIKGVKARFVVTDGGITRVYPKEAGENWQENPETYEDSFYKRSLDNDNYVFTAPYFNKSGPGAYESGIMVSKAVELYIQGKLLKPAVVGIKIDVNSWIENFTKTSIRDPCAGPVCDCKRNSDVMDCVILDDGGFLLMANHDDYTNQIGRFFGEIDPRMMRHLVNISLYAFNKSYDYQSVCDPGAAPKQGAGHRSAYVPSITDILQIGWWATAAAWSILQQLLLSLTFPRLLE
T2 sequence (P54290 945-1091 partner limits assumed, other chains not shown): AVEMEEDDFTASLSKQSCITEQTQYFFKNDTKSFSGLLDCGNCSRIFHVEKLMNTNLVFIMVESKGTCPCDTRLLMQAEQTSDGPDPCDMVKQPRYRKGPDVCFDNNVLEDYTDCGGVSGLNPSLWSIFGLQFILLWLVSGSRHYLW
Put plainly: verapamil binding study ([^3H]desmethoxyverapamil). Particulars: read-out: verapamil binding study (Ca^2+ channel binding affinity). How it is done: The adverse effect on Ca^2+ channel binding affinity is determined by verapamil binding study in rat heart membrane preparation. More specifically, verapamil binding study is performed as previously described by Reynolds et al., (J. Pharmacol. Exp. Ther. 237, 731, 1986). Briefly, incubations are initiated by the addition of tissue to tubes containing 0.25 nM [^3H]desmethoxyverapamil and various concentrations of compounds (total volume; 1 ml). Nonspecific binding is defined as radioligand binding remaining in the presence of 3-10 μM methoxyverapamil.
`COc1cc2c(cc1CN[C@H]1CCCN[C@H]1c1ccccc1)N(C)C(=O)CC2.Cl.Cl` [Compound 21, (2S,3S)-3-(6-Methoxy-1-methyl-2-oxo-1,2,3,4-tetrahydroquinolin-7-yl)methylamino-2-phenylpiperidine dihydrochloride]: the pIC50 is less than 5.52.
